≈ marks a conversion by molar mass, not a printed value.
Columns and labels:
[1] = system: HFD-induced obesity in mice; test: Serum lipid profiles in HFD-induced obesity mice, 6 weeks; assay type: in vivo, ICR mice; conditions: Orlistat orally daily for 6 weeks
Protocol: Male healthy 4-week-old ICR mice (about 30-32 g) were purchased from Orient (Gyeonggi-do, Korea). Each mouse was kept at room temperature (22±3° C.) and humidity (55±5%) with a 12-h light/dark cycle. The experiments were approved by the Ethics Committee of Animal Experimentation of the University of Daegu Haany. The mice were allowed free access to laboratory pellet chow and water ad libitum. After adaptation (1 week), all experimental mice except normal mice (n=8) were fed with 60% high-fat diet (HFD; Diet 12492, Research Diets, Inc., 105 New Brunswick, N.J., USA) for 5 days to adapt to a feed. Thereafter, ICR mice (n=32) fed 60% HFD were randomly divided into four groups (HFD control group, orlistat group, and two PCM treatment groups (50 and 200 mg/kg/day))(in each group n=8). The normal group is supplied with a normal feed and the rest of the groups are supplied with 60% HFD until the end of experiment. The normal and HFD control groups were given water using a stomach tube, while the drug treatment groups were orally given Orlistat or PCM daily using a stomach tube for 6 weeks. After administration for 6 weeks, each mouse was sacrificed after fasting for 12 hours. The blood was immediately centrifuged for 10 minutes at 4° C. Serum triglyceride and total cholesterol were conducted spectrophotometrically using commercially available kits (Wako Pure Chemical Industries, Ltd., Osaka, Japan). HDL-cholesterol is measured using a commercial kit from Asan Pharm Co., Ltd. (Hwaseong-si, Korea, Cat AM203). LDL-cholesterol levels are calculated though TG, TC and HDL levels, and the following formula.

pancreatic lipase enzyme = biological target: T1, pancreatic lipase enzyme (Homo sapiens, UniProt P16233); conditions: background statement; cited from earlier work
T1 sequence (P16233 17-465): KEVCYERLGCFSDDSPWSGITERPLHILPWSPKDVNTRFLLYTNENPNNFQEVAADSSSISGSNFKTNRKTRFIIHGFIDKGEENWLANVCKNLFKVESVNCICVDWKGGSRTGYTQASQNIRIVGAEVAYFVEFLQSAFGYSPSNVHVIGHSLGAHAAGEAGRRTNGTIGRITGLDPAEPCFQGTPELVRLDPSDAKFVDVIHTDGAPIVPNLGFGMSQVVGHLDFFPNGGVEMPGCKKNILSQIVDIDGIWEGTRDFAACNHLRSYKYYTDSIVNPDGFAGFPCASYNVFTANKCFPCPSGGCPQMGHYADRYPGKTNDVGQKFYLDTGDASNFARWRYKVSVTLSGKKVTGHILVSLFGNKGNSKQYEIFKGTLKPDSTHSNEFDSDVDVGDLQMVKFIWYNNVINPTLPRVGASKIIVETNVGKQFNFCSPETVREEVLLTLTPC

[2] = biological target: T2, porcine pancreatic lipase (Sus scrofa, UniProt P00591); test: Pancreatic lipase inhibition (p-NPB hydrolysis); assay type: biochemical; conditions: PCM 100-1000 μg/mL, orlistat 0.1-1 μg/mL, n=4
T2 construct: purchased Sigma-Aldrich Co. Type 2 (catalogue number not given)
T2 sequence (P00591 1-450): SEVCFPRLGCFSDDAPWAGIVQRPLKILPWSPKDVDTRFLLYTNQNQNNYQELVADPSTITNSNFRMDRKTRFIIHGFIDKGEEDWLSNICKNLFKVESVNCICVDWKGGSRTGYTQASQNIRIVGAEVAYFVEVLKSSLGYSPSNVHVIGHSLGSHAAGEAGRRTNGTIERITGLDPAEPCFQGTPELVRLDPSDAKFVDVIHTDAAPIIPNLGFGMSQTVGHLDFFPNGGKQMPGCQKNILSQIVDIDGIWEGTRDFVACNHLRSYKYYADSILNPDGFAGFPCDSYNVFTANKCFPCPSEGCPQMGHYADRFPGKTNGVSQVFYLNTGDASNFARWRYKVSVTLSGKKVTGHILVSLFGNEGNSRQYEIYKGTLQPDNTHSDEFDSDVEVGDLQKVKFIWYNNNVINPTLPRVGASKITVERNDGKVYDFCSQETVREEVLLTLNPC

[3] = system: HFD-induced obesity in mice; test: Body weight and visceral fat in HFD-induced obesity mice, 6 weeks; assay type: in vivo, ICR mice
Protocol: Male healthy 4-week-old ICR mice (about 30-32 g) were purchased from Orient (Gyeonggi-do, Korea). Each mouse was kept at room temperature (22±3° C.) and humidity (55±5%) with a 12-h light/dark cycle. […] The mice were allowed free access to laboratory pellet chow and water ad libitum. After adaptation (1 week), all experimental mice except normal mice (n=8) were fed with 60% high-fat diet (HFD; Diet 12492, Research Diets, Inc., 105 New Brunswick, N.J., USA) for 5 days to adapt to a feed. Thereafter, ICR mice (n=32) fed 60% HFD were randomly divided into four groups (HFD control group, orlistat group, and two PCM treatment groups (50 and 200 mg/kg/day))(in each group n=8). The normal group is supplied with a normal feed and the rest of the groups are supplied with 60% HFD until the end of experiment. The normal and HFD control groups were given water using a stomach tube, while the drug treatment groups were orally given Orlistat or PCM daily using a stomach tube for 6 weeks. After administration for 6 weeks, each mouse was sacrificed after fasting for 12 hours. The blood was immediately centrifuged for 10 minutes at 4° C.

ABTS radical inhibition = assay type: biochemical; conditions: 15 minutes at room temperature in the dark, 750 nm
Protocol: ABTS inhibition of the different extracts was measured according to the modified method of Park et al. ABTS stock solution was dissolved in water to 7.4 mM concentration. The ABTS radical cation (ABTS) was produced by reacting ABTS stock solution with 2.45 mM potassium persulfate and allowing the mixture to stand for 14 hours at room temperature in the dark. The ABTS solution was diluted with ethanol to obtain an absorbance of 0.70±0.02 at 750 nm. After adding diluted ABTS solution to PCM solution, the mixture was left standing at room temperature for 15 minutes in the dark. The ascorbic acid (standard sample) was prepared for eight concentrations (0.5, 1, 2, 5, 10, 20, 50, and 200 μg/mL). The absorbance at 750 nm was measured using a microplate reader (M200 PRO, Tecan, Austria). The blank was prepared in the same manner, except that distilled water was used instead of the sample. The radical scavenging activity was calculated using the following formula. ABTS radical scavenging activity (%)=[1(Asample/Ablank)]×100

[4] = DPPH radical inhibition (antioxidant activity); assay type: biochemical; conditions: 60 μM DPPH, 30 minutes at 25° C., 540 nm
Protocol: The ascorbic acid (standard sample) was prepared for eight concentrations (0.5, 1, 2, 5, 10, 20, 50, and 200 μg/mL). The reaction mixture was stored in the dark at 25° C. for 30 minutes. The optical density was determined using a microplate reader (M200 PRO, Tecan, Austria). The mixture was measured spectrophotometrically using 540 nm. The antioxidant activity of each sample was expressed in terms of IC50 (micromolar concentration required to inhibit DPPH radical formation by 50%, calculated from the log-dose inhibition curve). Antioxidant activity was expressed in terms of IC50, and a lower IC50 value corresponds to a large inhibition. The radical scavenging activity was calculated using the following formula. DPPH radical scavenging activity (%)=[1(Asample/Ablank)]×100

[5] = Orlistat orally daily for 6 weeks

## CCCCCCCCCCC[C@@H](C[C@@H]1OC(=O)[C@H]1CCCCCC)OC(=O)[C@H](CC(C)C)NC=O [Orlistat]
[1]; calculated from TG, TC, HDL
  LDL-cholesterol level: at the same level as normal food-supplied mice
[1]; serum
  TC level: at the same level as normal food-supplied mice
  TG level: at the same level as normal food-supplied mice
Pancreatic lipase enzyme
  prevention of absorption of dietary fat: approximately 30%
  side effects: severe gastrointestinal side effects
[2]
  lipase inhibition versus dose (FIG. 2): did not rise at least a certain concentration
[3]; [5]
  Weight Amount of change: 8.21 ± 1.82 g/6 weeks
  Weight Final: 44.92 ± 1.62 g
[3]; Orlistat, 6 weeks
  visceral fat weight compared with HFD control mice: significantly decreased

## O=C1O[C@H]([C@@H](O)CO)C(O)=C1O [ascorbic acid]
ABTS radical inhibition
  IC50 value against the ABTS: 2.27 ± 0.19 mg/L (≈ 12.9 µM)
[4]
  IC50 of DPPH inhibition: 1.26 ± 0.02 mg/L

From patent US10751379B2, “Method for preparing anti-obesity composition by using astringent persimmons and mandarin peels” (INDUSTRY ACADEMIC COORPERATION FOUNDATION DAEGU HAANY …, priority 2016, dated 2020)
